In US6930127B2, “Veterinary treatment of ophthalmic disease in animals using topical tacrolimus” (Eaton Veterinary Laboratories, Inc., priority 2002, dated 2005):

Columns and labels:
[1] = tested on: canines with keratoconjunctivitis sicca; experiment: Clinical trial of topical tacrolimus in treatment of canine keratoconjunctivitis sicca; format: in vivo, dogs; details: twice daily, 30 days
Protocol: A population of canines with keratoconjunctivitis sicca was subject to a method of treatment with a topical tacrolimus solution in order to evaluate the therapeutic effectiveness of the drug. Materials • 0.02% tacrolimus was prepared in a physiologically acceptable ointment base. • 0.02% tacrolimus was prepared in a physiologically acceptable oil base. • Schirmer Tear Test strips were employed to measure tearing. • Petrolatum eye ointment was used for patient comfort. • Commercial eyewash was used as a cleaning solution. The test group consisted of 26 dogs of various breeds from different geographic areas. […] 24 dogs were administered a dose of tacrolimus in either ointment or oil base twice daily in both eyes for 30 days. 2 dogs received the same treatment in only one eye. Petrolatum ointment was administered to some dogs as necessary for comfort. Debris was flushed from the eyes as necessary using a commercial eyewash preparation. The eyes were examined and observations recorded at days 7-14 and again at 21-30 days during treatment.

[2] = cited from earlier work
immune response = details: 'thought to be'; cited from earlier work

C=CC[C@@H]1/C=C(\C)C[C@H](C)C[C@H](OC)[C@H]2O[C@@](O)(C(=O)C(=O)N3CCCC[C@H]3C(=O)O[C@H](/C(C)=C/[C@@H]3CC[C@@H](O)[C@H](OC)C3)[C@H](C)[C@@H](O)CC1=O)[C@H](C)C[C@@H]2OC [Tacrolimus]
signs of ocular irritation ([1]; 0.02% tacrolimus in ointment or oil base, topical): None of the subjects exhibited signs of ocular irritation | treated eyes exhibiting improvement ([1]; 0.02% tacrolimus in ointment or oil base, topical, 26 dogs with KCS): 96% | treated eyes exhibiting improved Schirmer Tear Test (STT) values ([1]; 0.02% tacrolimus in ointment or oil base, topical, 60 second STT): 92% | additional effect: corneal scarring and pigmentation ([1]; 0.02% tacrolimus topical): reduction in corneal scarring and pigmentation | additional effect: inflammation of the conjunctiva ([1]; 0.02% tacrolimus topical): reduction in inflammation of the conjunctiva | effectiveness in dogs, including those where cyclosporine had previously failed ([1]; 0.02% tacrolimus topical): effective in some dogs for whom cyclosporine treatment had previously failed | solubility in alcohols and some oils ([2]; alcohols and some oils): soluble | solubility in water ([2]; water): practically insoluble | potency relative to cyclosporine on a per gram basis (immune response): up to 100 times
